Laboratory results as given in publication PMC9822155, “Synthesis and Antiproliferative Activity against Cancer Cells of Indole-Aryl-Amide Derivatives” (Molecules, 2022).

Experiments:
[1] = biological target: T1, δ-OR (Homo sapiens, UniProt P41143); experiment: Radioligand binding assay, δ-OR ([3H]deltorphin-2 displacement); conditions: [3H]deltorphin-2, membranes of CHO cells with human recombinant OR; ± SEM (n ≥ 3)
T1 construct: purchased PerkinElmer (Krakow, Poland); host or cells: CHO cells (membranes)
T1 sequence (P41143 whole entry): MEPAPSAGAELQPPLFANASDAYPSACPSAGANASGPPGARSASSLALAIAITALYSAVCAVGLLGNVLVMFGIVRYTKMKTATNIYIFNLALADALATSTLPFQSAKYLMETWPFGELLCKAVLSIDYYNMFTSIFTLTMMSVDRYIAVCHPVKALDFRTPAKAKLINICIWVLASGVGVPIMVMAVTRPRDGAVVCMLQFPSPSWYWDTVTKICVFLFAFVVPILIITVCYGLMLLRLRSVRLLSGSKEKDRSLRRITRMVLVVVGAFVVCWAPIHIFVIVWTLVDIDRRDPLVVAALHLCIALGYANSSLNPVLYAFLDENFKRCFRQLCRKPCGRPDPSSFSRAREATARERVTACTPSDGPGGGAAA
Protocol: In order to evaluate the affinity of the compounds for μ-, δ-, κ-ORs, radioligand binding assays were performed. Displacement of radioligands, [^3H]DAMGO (μ-OR selective), [^3H]deltorphin-2 (δ-OR selective), and [^3H]U-69593 (κ-OR selective) by the synthetic analogs was investigated in the commercial membranes of CHO cells transfected with human recombinant ORs. […] Due to the modest receptor affinities, the functional activity of the compounds was not investigated.
Opioid radioligands, [^3H]DAMGO, [^3H]deltorphin-2 and [^3H]U-69593, and human recombinant opioid receptors came from PerkinElmer (Krakow, Poland). GF/B glass fiber strips were purchased from Whatman (Brentford, UK).
To determine the affinity of peptide analogs at the respective receptors, competition binding experiments were performed. Commercial membranes of CHO cells stably expressing human opioid receptors and the competing radioligands, [^3H]DAMGO, [^3H]deltorphin-2, and [^3H]U-69593 for μ-OR, δ-OR, and κ-OR, respectively, were used. Membranes were incubated in 0.5 mL volume of 50 mM Tris/HCl (pH = 7.4), 0.5% bovine serum albumin (BSA), with a number of peptidase inhibitors (bacitracin, bestatin, captopril) and various concentrations of radioligands for 2 h at 25 °C. Non-specific binding was assessed in the presence of […]. Three independent experiments for each assay were carried out in duplicate. The data were analyzed by a nonlinear least square regression analysis computer program Graph Pad PRISM 6.0 (Graph Pad Software Inc., San Diego, CA, USA). The IC50 values were determined from the logarithmic concentration-displacement curves, and the values of the inhibitory constants (Ki) were calculated according to the equation of Cheng and Prusoff.

[2] = test system: HT29 cells; experiment: Cell cycle analysis by flow cytometry (PI staining); assay type: cell-based, human; conditions: HT29, 5 μM, 24 h
Protocol: HT29 cells were treated with 1 or 5 μM 5 for 24 h and analyzed by flow cytometry after DNA staining. […] In contrast, 5-treated HT29 cells accumulated in the G0/G1 phase in a dose-dependent manner, with a nearly complete synchronization (84% ± 0.9) after 5 μM treatment.
HT29 were plated at density of 20,000 cell/cm^2 in dish and after 24 h treated with 1 or 5 μM of 5 for 24 h. The samples were prepared in according to Calonghi. In brief, untreated and treated cells were detached, washed in PBS and the pellet was finally re-suspended in 0.01% Nonidet P-40 (Sigma-Aldrich, Milano, Italy), 10 μg/mL RNase (Sigma-Aldrich, Milano, Italy), 0.1% sodium citrate (Sigma-Aldrich, Milano, Italy), 50 μg/mL propidium iodide (PI) (Sigma-Aldrich, Milano, Italy), for 30 min at room temperature in the dark. Propidium iodide (PI) fluorescence was acquired on a linear scale and analysed by Modfit software version 5.2 (USA). Flow cytometric assays were performed on a Brite HS flow cytometer (Bio-Rad, Watford, UK) equipped with a Xe/Hg lamp.

[3] = test system: p27, p21 and Bax proteins in HT29 cells; experiment: Western blot of p27, p21, Bax proteins; assay type: cell-based, human; conditions: HT29, 5 μM, 24 h
Protocol: P27, p21, and Bax proteins expressions were analysed by western blot in control HT29 and treated with 5 μM of 5 for 24 h.
HT29 cells were seeded in 25 cm^2 flasks at a density of 2 × 10^4 cells/cm^2, and after 24 h, they were treated with 5 μM of compound 5. After 24 h, both treated and control cells were washed twice with PBS and lysed in RIPA buffer [50 mMTris/HCl, 150 mMNaCl, SDS (1% v/v), Triton X-100 (1% v/v), 1 mM EDTA, pH 7.6]. Cell lysates were centrifuged at 12,000× g for 20 min, and the protein concentration was determined by using the Bio-Rad protein assay method (Bio-Rad, Hercules, CA, USA). The proteins were detected resolving samples on a 12% gel in Tris-Glycine buffer at 200 V for 50 min. Western Blot was performed in transfer buffer at 100 V for 1 h. The nitrocellulose membrane was incubated with primary antibodies for rabbit anti-p21 (Millipore, Billerica, MA, USA) or rabbit anti-p27 (Millipore, Billerica, MA) or mouse anti-Bax (Millipore, Billerica, MA, USA) or mouse anti-α tubulin (Invitrogen, Walthman, MA, USA) for 1 h. Detection of immunoreactive bands was performed by using a rabbit or mouse HRP-conjugated secondary antibody (GE Healthcare, Milan, Italy), followed by Amersham ECL Plus Western Blotting Detection System (GE Healthcare, Milan, Italy). Densitometry analysis of immunoreactive bands was done by Fluor-S Max MultiImager (Bio-Rad, Hercules, CA, USA). Relative quantification of bands was performed by using an α-tubulin signal as control.

- Ki [1]: 10.8 ± 1.3 µM
SMILES: Nc1ccc(CN(Cc2ccc(O)cc2)C(=O)Cc2c[nH]c3ccccc23)cc1 [Compound 5]
- Cells in G0/G1 phase [2]: 84% ± 0.9
- Bax protein expression [3]: increase
- p21 protein expression [3]: increase
- p27 protein expression [3]: did not modify the expression
